pIC50: −log10 of the molar value.
Each compound was assayed against T1, Human Factor D (Homo sapiens, UniProt P00746) (assay: Human Factor D Assay). Details: Table 1; Factor D 80 nM, substrate Z-L-Lys-SBzl; read-out: IC50.
T1 construct: purified from human serum; purchased Complement Technology, Inc; host or cells: human serum (natural protein, not recombinant)
Format: biochemical
Experimental: Human Factor D (purified from human serum, Complement Technology, Inc.) at 80 nM final concentration is incubated with test compound at various concentrations for 5 minutes at room temperature in 50 mM Tris, 1M NaCl, pH 7.5. A synthetic substrate Z-L-Lys-SBzl and DTNB (Ellman's reagent) are added to final concentrations of 100 μM each. Absorbance at 405 nm (A405) is recorded at 30 second intervals for 30 minutes using a microplate spectrophotometer. IC50 values are calculated by nonlinear regression of complement Factor D reaction rates as a function of test compound concentration.

T1 sequence (P00746 26-253): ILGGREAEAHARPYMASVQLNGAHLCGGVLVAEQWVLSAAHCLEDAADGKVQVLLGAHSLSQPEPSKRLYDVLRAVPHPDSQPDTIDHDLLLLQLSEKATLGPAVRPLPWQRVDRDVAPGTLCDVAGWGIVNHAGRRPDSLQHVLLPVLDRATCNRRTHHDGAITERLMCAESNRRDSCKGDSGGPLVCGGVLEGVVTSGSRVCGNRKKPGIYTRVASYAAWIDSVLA

Compound	pIC50
CC(=O)c1cn(CC(=O)N2C[C@H](F)C[C@H]2C(=O)NCc2cccc(Cl)c2F)c2ccc(NC(=O)NC(C)C)cc12 [Compound 6, (2S,4R)-1-(2-(3-acetyl-5-(3-isopropylureido)-1H-indol-1-yl)acetyl)-N-(3-chloro-2-fluorobenzyl)-4-fluoropyrrolidine-2-carboxamide]	> 6.00
CC(=O)c1cn(CC(=O)N2C[C@H](F)C[C@H]2C(=O)NCc2cccc(Cl)c2F)c2cc(C(=O)N[C@H]3CCNC3)ccc12 [Compound 45, 3-acetyl-1-(2-((2S,4R)-2-(3-chloro-2-fluorobenzyl-carbamoyl)-4-fluoropyrrolidin-1-yl)-2-oxoethyl)-N-((S)-pyrrolidin-3-yl)-1H-indole-6-carboxamide]	> 6.00
CC(=O)c1cn(CC(=O)N2C[C@H](F)C[C@H]2C(=O)Nc2cccc(-c3ccccc3Cl)c2F)c2ccc(NC(=O)C3CCC(F)(F)C3)cc12 (stereo partly drawn) [Compound 35, (2S,4R)-1-(2-(3-acetyl-5-(3,3-difluorocyclopentane-carboxamido)-1H-indol-1-yl)acetyl)-N-(2′-chloro-2-fluorobiphenyl-3-yl)-4-fluoropyrrolidine-2-carboxamide]	> 6.00
NC(=O)c1nn(CC(=O)N2[C@@H]3C[C@@H]3C[C@H]2C(=O)Nc2cccc(Br)n2)c2ccc(NC(=O)N3CCCC(F)(F)C3)cc12 [Compound 34, 1-(2-((1R,3S,5R)-3-(6-bromopyridin-2-ylcarbamoyl)-2-azabicylco[3.1.0]hexan-2-yl)-2-oxoethyl)-5-(3,3-difluoropiperidine-1-carboxamido)-1H-indazole-3-carboxamide]	> 6.00
NC(=O)c1nn(CC(=O)N2C[C@H](F)C[C@H]2C(=O)Nc2cccc(-c3ccccc3Cl)c2F)c2ccc(NC(=O)N3CCC(F)(F)C3)cc12 [Compound 30, 1-(2-((2S,4R)-2-(2′-chloro-2-fluorobiphenyl-3-ylcarbamoyl)-4-fluoropyrrolidin-1-yl)-2-oxoethyl)-5-(3,3-difluoropyrrolidine-1-carboxamido)-1H-indazole-3-carboxamide]	> 6.00
CC(=O)c1cn(CC(=O)N2C[C@H](F)C[C@H]2C(=O)Nc2cccc(OC(F)(F)F)c2F)c2ccc(NC(=O)N3CCCC(F)(F)C3)cc12 [Compound 17, N-(3-acetyl-1-(2-((2S,4R)-4-fluoro-2-(2-fluoro-3-(trifluoromethoxy)phenylcarbamoyl)pyrrolidin-1-yl)-2-oxoethyl)-1H-indol-5-yl)-3,3-difluoropiperidine-1-carboxamide]	> 6.00
COC(=O)C1CCN(C(=O)c2ccc3c(C(C)=O)cn(CC(=O)N4C[C@H](F)C[C@H]4C(=O)NCc4cccc(Cl)c4F)c3c2)C1 (stereo partly drawn) [Compound 51, methyl 1-(3-acetyl-1-(2-((2S,4R)-2-(3-chloro-2-fluorobenzylcarbamoyl)-4-fluoropyrrolidin-1-yl)-2-oxoethyl)-1H-indole-6-carbonyl)pyrrolidine-3-carboxylate]	> 6.00
CC(=O)c1cn(CC(=O)N2C[C@H](F)C[C@H]2C(=O)NCc2cccc(Cl)c2F)c2ccc(NC(=O)N3CCC(F)(F)C3)cc12 [Compound 13, N-(3-acetyl-1-(2-((2S,4R)-2-(3-chloro-2-fluorobenzylcarbamoyl)-4-fluoropyrrolidin-1-yl)-2-oxoethyl)-1H-indol-5-yl)-3,3-difluoropyrrolidine-1-carboxamide]	> 6.00
CC(=O)c1cn(CC(=O)N2C[C@H](F)C[C@H]2C(=O)NCc2cccc(Cl)c2F)c2ccc(NC(=O)N3CCCC3)cc12 [Compound 9, N-(3-acetyl-1-(2-((2S,4R)-2-(3-chloro-2-fluorobenzylcarbamoyl)-4-fluloropyrrolidin-1-yl)-2-oxoethyl)-1H-indol-5-yl)pyrrolidine-1-carboxamide]	> 6.00
CC(=O)c1cn(CC(=O)N2C[C@H](F)C[C@H]2C(=O)NCc2cccc(Cl)c2F)c2ccc(NC(=O)NCC(F)(F)F)cc12 [Compound 21, (2S,4R)-1-(2-(3-acetyl-5-(3-(2,2,2-trifluoroethyl)ureido)-1H-indol-1-yl)acetyl)-N-(3-chloro-2-fluorobenzyl)-4-fluoropyrrolidine-2-carboxamide]	> 6.00
CC(=O)c1cn(CC(=O)N2C[C@H](F)C[C@H]2C(=O)NCc2cccc(Cl)c2F)c2cc(C(=O)NS(C)(=O)=O)ccc12 [Compound 43]	> 6.00
CC(=O)c1cn(CC(=O)N2C[C@H](F)C[C@H]2C(=O)NCc2cccc(Cl)c2F)c2cc(C(=O)N3CCC(C(=O)O)C3)ccc12 (stereo partly drawn) [Compound 52, 1-(3-acetyl-1-(2-((2S,4R)-2-(3-chloro-2-fluorobenzylcarbamoyl)-4-fluoropyrrolidin-1-yl)-2-oxoethyl)-1H-indole-6-carbonyl)pyrrolidine-3-carboxylic acid]	> 6.00
NC(=O)c1nn(CC(=O)N2C[C@H](F)C[C@H]2C(=O)Nc2cccc(-c3ccccc3Cl)c2F)c2ccc(NC(=O)N3CCCC(F)(F)C3)cc12 [Compound 24, 1-(2-((2S,4R)-2-(2′-chloro-2-fluorobiphenyl-3-ylcarbamoyl)-4-fluoropyrrolidin-1-yl)-2-oxoethyl)-5-(3,3-difluoropiperidine-1-carboxamido)-1H-indazole-3-carboxamide]	> 6.00
CC(=O)c1cn(CC(=O)N2C[C@H](F)C[C@H]2C(=O)NCc2cccc(Cl)c2F)c2ccc(C(=O)N3CC=C(B(O)O)CC3)cc12 [Compound 38, 1-(3-acetyl-1-(2-((2S,4R)-2-(3-chloro-2-fluorobenzylcarbamoyl)-4-fluoropyrrolidin-1-yl)-2-oxoethyl)-1H-indole-5-carbonyl)-1,2,3,6-tetrahydropyridin-4-ylboronic acid]	> 6.00

Same assay, conditions: Table 2; Factor D 80 nM, substrate Z-L-Lys-SBzl; read-out: IC50

Compound	pIC50
CC(C)(C)C(=O)Nc1nc2c(s1)c(C(N)=O)nn2CC(=O)N1C[C@H](F)C[C@H]1C(=O)NCc1cccc(Cl)c1F [Compound 56, 1-(2-((2S,4R)-2-(3-chloro-2-fluorobenzylcarbamoyl)-4-fluoropyrrolidin-1-yl)-2-oxoethyl)-5-pivalamido-1H-pyrazolo[3,4-d]thiazole-3-carboxamide]	> 6.00
NC(=O)c1nn(CC(=O)N2C[C@H](F)C[C@H]2C(=O)Nc2cccc(-c3ccccc3Cl)c2F)c2cc(C(=O)NC3CC3)sc12 [Compound 57, 1-(2-((2S,4R)-2-(2′-chloro-2-fluorobiphenyl-3-ylcarbamoyl)-4-fluoropyrrolidin-1-yl)-2-oxoethyl)-N5-cyclopropyl-1H-thieno[3,2-c]pyrazole-3,5-dicarboxamide]	> 6.00
CN(C)C(=O)c1cc2c(s1)c(C(N)=O)nn2CC(=O)N1C[C@H](F)C[C@H]1C(=O)Nc1cccc(-c2ccccc2Cl)c1F [Compound 62, 1-(2-((2S,4R)-2-(2′-chloro-2-fluorobiphenyl-3-ylcarbamoyl)-4-fluoropyrrolidin-1-yl)-2-oxoethyl)-N5,N5-dimethyl-1H-thieno[3,2-c]pyrazole-3,5-dicarboxamide]	> 6.00

Same assay, conditions: Table 3; factor D inhibition assay; read-out: IC50 (Stars)

Compound	pIC50
CC(=O)c1cn(CC(=O)N2C[C@H](F)C[C@H]2C(=O)NCCCc2ccccc2)c2ccc(C(=O)NS(=O)(=O)C3CC3)cc12 [Compound 190, 3-acetyl-N-(cyclopropylsulfonyl)-1-(2-((2S,4R)-4-fluoro-2-((3-phenylpropyl)carbamoyl)pyrrolidin-1-yl)-2-oxoethyl)-1H-indole-5-carboxamide]	5.00 to 6.00
CC(=O)c1cn(CC(=O)N2C[C@H](F)C[C@H]2C(=O)NCc2ccccc2)c2ccc(C(=O)NS(=O)(=O)C3CC3)cc12 [Compound 180, 3-acetyl-1-(2-((2S,4R)-2-(benzylcarbamoyl)-4-fluoropyrrolidin-1-yl)-2-oxoethyl)-N-(cyclopropylsulfonyl)-1H-indole-5-carboxamide]	5.00 to 6.00
Cc1cccc(NC(=O)[C@@H]2[C@H]3CC[C@H](C3)N2C(=O)Cn2cc(C(N)=O)c3cc(C(=O)NS(=O)(=O)C4CC4)ccc32)n1 [Compound 209, N5-(cyclopropylsulfonyl)-1-(2-((1R,4S)-3-((6-methyl-pyridin-2-yl)carbamoyl)-2-aza-bicyclo[2.2.1]heptan-2-yl)-2-oxoethyl)-1H-indole-3,5-dicarboxamide]	< 5.00
CC(=O)c1cn(CC(=O)N2C[C@H](F)C[C@H]2C(=O)NCCCCc2ccccc2)c2ccc(C(=O)NS(=O)(=O)C3CC3)cc12 [Compound 195, 3-acetyl-N-(cyclopropylsulfonyl)-1-(2-((2S,4R)-4-fluoro-2-((4-phenylbutyl)carbamoyl)pyrrolidin-1-yl)-2-oxoethyl)-1H-indole-5-carboxamide]	< 5.00
CC(=O)c1cn(CC(=O)N2C[C@H](F)C[C@H]2C(=O)NCc2ccccc2)c2ccc(NC(=O)N3CCCC(F)(F)C3)cc12 [Compound 196, N-(3-acetyl-1-(2-((2S,4R)-2-(benzocarbamoyl)-4-fluoropyrrolidin-1-yl)-2-oxoethyl)-1H-indol-5-yl)-3,3-difluoropiperidine-1-carboxamide]	> 6.00
CC(=O)c1nn(CC(=O)N2C[C@H](F)C[C@H]2C(=O)Nc2cccc(Br)n2)c2ccc(NC(=O)N3CCC(F)(F)C3)cc12 [Compound 207, N-(3-acetyl-1-(2-((2S,4R)-2-((6-bromo-pyridin-2-yl)carbamoyl)-4-fluoro-pyrrolidin-1-yl)-2-oxoethyl)-1H-indazol-5-yl)-3,3-difluoro-pyrrolidine-1-carboxamide]	> 6.00
CC(=O)c1cn(CC(=O)N2C[C@H](F)C[C@H]2CCNS(=O)(=O)c2ccccc2)c2ccc(C(=O)NS(=O)(=O)C3CC3)cc12 [Compound 174, 3-acetyl-N-(cyclopropylsulfonyl)-1-(2-((2R,4R)-4-fluoro-2-(2-(phenylsulfonylamido)ethyl)pyrrolidin-1-yl)-2-oxoethyl)-1H-indole-5-carboxamide]	< 5.00
